The values that follow are results of earlier work, collected in patent publication US20260209855A1, “COMPOSITIONS AND METHODS FOR DETECTION AND TREATMENT OF PROSTATE CANCER” (The Regents of the University of California, priority 2022, published 2026).

The test system of data set [1] is benign prostatic hyperplasia (BPH). The following applies: patients with BPH and AI, treatment prior to BPH diagnosis; result in words.
Data set [2] relates to PCa. Conditions: result in words.
In data set [3] the test system is PCa patients. Conditions: clinical trials; result in words.

In the case of `CN(Cc1cnc2nc(N)nc(N)c2n1)c1ccc(C(=O)N[C@@H](CCC(=O)O)C(=O)O)cc1` [methotrexate], in data set [1], the “Likelihood to develop BPH” value is “did not have this effect”.

As for bevacizumab, the “Clinical trial results in the treatment of PCa” value in data set [2] was “conflicting results”.

B1: siltuximab (antibody, chains of the INN, looked up, V domains shown)
VH: EVQLVESGGKLLKPGGSLKLSCAASGFTFSSFAMSWFRQSPEKRLEWVAEISSGGSYTYYPDTVTGRFTISRDNAKNTLYLEMSSLRSEDTAMYYCARGLWGYYALDYWGQGTSVTVSS
VL: QIVLIQSPAIMSASPGEKVTMTCSASSSVSYMYWYQQKPGSSPRLLIYDTSNLASGVPVRFSGSGSGTSYSLTISRMEAEDAATYYCQQWSGYPYTFGGGTKLEIK
notes: An IL-6 antagonist tested in clinical trials in PCa patients
Take B1: the “Clinical efficacy in PCa patients” value in data set [3] is “no clinical efficacy”.
